According to patent publication US8822471B2, “Compounds, pharmaceutical compositions and uses thereof” (Boehringer Ingelheim International GmbH, priority 2011, dated 2014):

Target: T1, human GPR119 (Homo sapiens, UniProt Q8TDV5)
T1 construct: expression vector for human GPR119 cDNA (Acc. No. NP_848566); expressed in transfected cells
T1 sequence (Q8TDV5 1-335): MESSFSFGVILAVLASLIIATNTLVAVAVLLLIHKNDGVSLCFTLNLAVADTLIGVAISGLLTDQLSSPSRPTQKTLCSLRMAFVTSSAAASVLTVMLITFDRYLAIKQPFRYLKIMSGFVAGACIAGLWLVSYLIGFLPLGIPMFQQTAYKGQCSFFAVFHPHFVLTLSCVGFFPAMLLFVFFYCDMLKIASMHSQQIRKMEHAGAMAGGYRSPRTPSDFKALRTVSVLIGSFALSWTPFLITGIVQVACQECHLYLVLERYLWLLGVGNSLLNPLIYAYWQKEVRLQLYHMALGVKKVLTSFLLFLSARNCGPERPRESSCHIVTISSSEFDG
Test: AlphaScreen cAMP assay in MIN6 cells stably transfected with human GPR119
Format: cell-based
Conditions: Min-6/hGPR119 cells, AlphaScreen cAMP Assay Kit, 45 minutes incubation at room temperature
Method: The compounds of formula I according to the invention modulate the activity of the G-protein-coupled receptor GPR119. The effect of the compounds on the activation of GPR119 and on the stimulation of intracellular cAMP concentration is determined using the AlphaScreen cAMP Assay Kit (Cat. No. #6760625R) made by PerkinElmer.
MIN6 cells [Miyazaki J et al. Endocrinology. 1990 July; 127(1):126-32] are stably transfected with an expression vector for human GPR119 cDNA (Acc. No. NP_848566). Min-6/hGPR119 cells are cultured in DMEM, 10% FBS, 50 μM β-mercaptoethanol, 0.3 mg/mL Geniticin, 2 mM GlutaMAX at 37° C. 5% CO2. For the assay, the cells are seeded in Optiplates (white, 384-well, 160 W-barcoded, TC, sterile with lid, Cat. No. #6007688 (Perkin Elmer); 10000 cells/well; 50 μl). The plates covered with lids are then incubated for 24 hours at 37° C./5% CO2. After the medium is aspirated from the wells completely, 10 μl of the test compound are added, the compounds are diluted using stimulating buffer (140 mM NaCl, 3.6 mM KCl, 0.5 mM NaH2PO4, 0.5 mM MgSO4, 1.5 mM CaCl2, 10 mM Hepes, 5 mM NaHCO3; pH 7.4. 0.5 mM IBMX and 0.1% BSA, the final DMSO concentration is 1%). After 45 minutes incubation at room temperature (approx. 20° C.), the cAMP concentrations are determined using the AlphaScreen cAMP Assay Kit (Cat. No. #6760625R from PerkinElmer).

Compound: O=C(c1ccc(-c2cnco2)cc1)N(C1CC1)C1CCN(c2ccc(Br)cn2)CC1 [Example 32, N-[1-(5-Bromo-pyridin-2-yl)-piperidin-4-yl]-N-cyclopropyl-4-oxazol-5-yl-benzamide]
- EC50: 38 nM

Compound: O=C(c1ccc(-c2cnco2)cc1)N(C1CC1)C1CCN(c2ccc(F)cn2)CC1 [Example 33, N-Cyclopropyl-N-[1-(5-fluoro-pyridin-2-yl)-piperidin-4-yl]-4-oxazol-5-yl-benzamide]
- EC50: 276 nM

Compound: Cc1ccc(N2CCC(N(C(=O)c3ccc(-c4cnco4)cc3)C3CC3)CC2)nc1 [Example 34, N-Cyclopropyl-N-[1-(5-methyl-pyridin-2-yl)-piperidin-4-yl]-4-oxazol-5-yl-benzamide]
- EC50: 85 nM

Compound: O=C(c1ccc(-c2cnco2)cc1)N(C1CC1)C1CCN(c2nc(Cl)ns2)CC1 [Example 35, N-[1-(3-Chloro-[1,2,4]thiadiazol-5-yl)-piperidin-4-yl]-N-cyclopropyl-4-oxazol-5-yl-benzamide]
- EC50: 53 nM

Compound: CC(C)Nc1nsc(N2CCC(N(C(=O)c3ccc(-c4cnco4)cc3)C3CC3)CC2)n1 [Example 36, N-Cyclopropyl-N-[1-(3-isopropylamino-[1,2,4]thiadiazol-5-yl)-piperidin-4-yl]-4-oxazol-5-yl-benzamide]
- EC50: 83 nM

Compound: CC(C)Oc1nsc(N2CCC(N(C(=O)c3ccc(-c4cnco4)cc3)C3CC3)CC2)n1 [Example 37, N-Cyclopropyl-N-[1-(3-isopropoxy-[1,2,4]thiadiazol-5-yl)-piperidin-4-yl]-4-oxazol-5-yl-benzamide]
- EC50: 55 nM

Compound: CCc1noc(N2CCC(N(C(=O)c3ccc(-c4ccc(C(N)=O)cc4)cc3)C3CC3)CC2)n1 [Example 38, Biphenyl-4,4′-dicarboxylic acid 4-amide 4′-{cyclopropyl-[1-(3-ethyl-[1,2,4]oxadiazol-5-yl)-piperidin-4-yl]-amide}]
- EC50: 204 nM

Compound: NC(=O)c1ccc(-c2ccc(C(=O)N(C3CC3)C3CCN(c4nc(-c5ccccc5)no4)CC3)cc2)cc1 [Example 39, Biphenyl-4,4′-dicarboxylic acid 4′-amide 4-{cyclopropyl-[1-(3-phenyl-[1,2,4]oxadiazol-5-yl)-Piperidin-4-yl]-amide}]
- EC50: 87 nM

Compound: O=C(c1ccc(-c2cnco2)cc1)N(C1CC1)C1CCN(c2nc(-c3ccc(Br)cc3)no2)CC1 [Example 40, N-{1-[3-(4-Bromo-phenyl)-[1,2,4]oxadiazol-5-yl]-piperidin-4-yl}-N-cyclopropyl-4-oxazol-5-yl-benzamide]
- EC50: 11 nM

Compound: Cc1ncoc1-c1ccc(C(=O)N(C2CC2)C2CCN(c3nc(-c4ccccc4)no3)CC2)cc1 [Example 41, N-Cyclopropyl-4-(4-methyl-oxazol-5-yl)-N-[1-(3-phenyl-[1,2,4]oxadiazol-5-yl)-piperidin-4-yl]-benzamide]
- EC50: 38 nM

Compound: Cc1ncoc1-c1ccc(C(=O)N(C2CC2)C2CCN(c3nc(C(C)C)no3)CC2)cc1 [Example 42, N-Cyclopropyl-N-[1-(3-isopropyl-[1,2,4]oxadiazol-5-yl)-piperidin-4-yl]-4-(4-methyl-oxazol-5-yl)-benzamide]
- EC50: 17 nM

Compound: Cc1ncoc1-c1ccc(C(=O)N(C2CC2)C2CCN(c3ncc(Cl)cn3)CC2)cc1 [Example 43, N-[1-(5-Chloro-pyrimidin-2-yl)-piperidin-4-yl]-N-cyclopropyl-4-(4-methyl-oxazol-5-yl)-benzamide]
- EC50: 46 nM

Compound: COc1ccc(-c2noc(N3CCC(N(C(=O)c4ccc(-c5cnco5)cc4)C4CC4)CC3)n2)cc1 [Example 44, N-Cyclopropyl-N-{1-[3-(4-methoxy-phenyl)-[1,2,4]oxadiazol-5-yl]-piperidin-4-yl}-4-oxazol-5-yl-benzamide]
- EC50: 31 nM

Compound: CCOC(=O)c1noc(N2CCC(N(C(=O)c3ccc(-c4cnco4)cc3)C3CC3)CC2)n1 [Example 45, 5-{4-[Cyclopropyl-(4-oxazol-5-yl-benzoyl)-amino]-piperidin-1-yl}-[1,2,4]oxadiazole-3-carboxylic acid ethyl ester]
- EC50: 259 nM

Compound: CC(C)(O)c1noc(N2CCC(N(C(=O)c3ccc(-c4cnco4)cc3)C3CC3)CC2)n1 [Example 46, N-Cyclopropyl-N-{1-[3-(1-hydroxy-1-methyl-ethyl)-[1,2,4]oxadiazol-5-yl]-piperidin-4-yl}-4-oxazol-5-yl-benzamide]
- EC50: 731 nM

Compound: O=C(c1ccc(-c2cnco2)cc1)N(C1CC1)C1CCN(c2noc(-c3ccccc3)n2)CC1 [Example 47, N-Cyclopropyl-4-oxazol-5-yl-N-[1-(5-phenyl-[1,2,4]oxadiazol-3-yl)-piperidin-4-yl]-benzamide]
- EC50: 37 nM

Compound: CCc1nc(N2CCC(N(C(=O)c3ccc(-c4cnco4)cc3)C3CC3)CC2)no1 [Example 48, N-Cyclopropyl-N-[1-(5-ethyl-[1,2,4]oxadiazol-3-yl)-piperidin-4-yl]-4-oxazol-5-yl-benzamide]
- EC50: 47 nM

Compound: CC(C)c1nc(N2CCC(N(C(=O)c3ccc(-c4cnco4)cc3)C3CC3)CC2)no1 [Example 49, N-Cyclopropyl-N-[1-(5-isopropyl-[1,2,4]oxadiazol-3-yl)-piperidin-4-yl]-4-oxazol-5-yl-benzamide]
- EC50: 14 nM

Compound: O=C(c1ccc(-c2cnco2)cc1)N(C1CC1)C1CCN(c2noc(-c3cnccn3)n2)CC1 [Example 50, N-Cyclopropyl-4-oxazol-5-yl-N-[1-(5-pyrazin-2-yl-[1,2,4]oxadiazol-3-yl)-piperidin-4-yl]-benzamide]
- EC50: 277 nM

Compound: O=C(c1ccc(-c2cnco2)cc1)N(C1CC1)C1CCN(c2noc(C3CC3)n2)CC1 [Example 51, N-Cyclopropyl-N-[1-(5-cyclopropyl-[1,2,4]oxadiazol-3-yl)-piperidin-4-yl]-4-oxazol-5-yl-benzamide]
- EC50: 56 nM

Compound: O=C(c1ccc(-c2cnco2)cc1)N(C1CC1)C1CCN(c2noc(C3CCC3)n2)CC1 [Example 52, N-[1-(5-Cyclobutyl-[1,2,4]oxadiazol-3-yl)-piperidin-4-yl]-N-cyclopropyl-4-oxazol-5-yl-benzamide]
- EC50: 17 nM

Compound: CCc1cnc(N2CCC(N(C(=O)c3ccc(-c4cnco4)cc3)C3CC3)C(C)C2)nc1 (stereo not drawn) [Example 53, N-Cyclopropyl-N-[1-(5-ethyl-pyrimidin-2-yl)-3-methyl-piperidin-4-yl]-4-oxazol-5-yl-benzamide]
- EC50: 99 nM

Compound: CC1CN(c2nc(-c3ccccc3)no2)CCC1N(C(=O)c1ccc(-c2cnco2)cc1)C1CC1 (stereo not drawn) [Example 54, N-Cyclopropyl-N-[3-methyl-1-(3-phenyl-[1,2,4]oxadiazol-5-yl)-piperidin-4-yl]-4-oxazol-5-yl-benzamide]
- EC50: 43 nM

Compound: O=C(c1ccc(-c2cnco2)cc1)N(C1CC1)C1CCN(c2nc(CC3CCOCC3)no2)CC1 [Example 55, N-Cyclopropyl-4-oxazol-5-yl-N-{1-[3-(tetrahydro-pyran-4-ylmethyl)-[1,2,4]oxadiazol-5-yl]-piperidin-4-yl}-benzamide]
- EC50: 1150 nM

Compound: O=C(c1ccc(-c2cnco2)cc1)N(C1CC1)C1CCN(c2nc(C3CCOCC3)no2)CC1 [Example 56, N-Cyclopropyl-4-oxazol-5-yl-N-{1-[3-(tetrahydro-pyran-4-yl)-[1,2,4]oxadiazol-5-yl]-piperidin-4-yl}-benzamide]
- EC50: 159 nM

Compound: C=CCCc1noc(N2CCC(N(C(=O)c3ccc(-c4cnco4)cc3)C3CC3)CC2)n1 [Example 57, N-[1-(3-But-3-enyl-[1,2,4]oxadiazol-5-yl)-piperidin-4-yl]-N-cyclopropyl-4-oxazol-5-yl-benzamide]
- EC50: 22 nM

Compound: CC(C)(CO)c1noc(N2CCC(N(C(=O)c3ccc(-c4cnco4)cc3)C3CC3)CC2)n1 [Example 58, N-Cyclopropyl-N-{1-[3-(2-hydroxy-1,1-dimethyl-ethyl)-[1,2,4]oxadiazol-5-yl]-piperidin-4-yl}-4-oxazol-5-yl-benzamide]
- EC50: 629 nM

Compound: CCCc1nc(N2CCC(N(C(=O)c3ccc(-c4cnco4)cc3)C3CC3)CC2)no1 [Example 59, N-Cyclopropyl-4-oxazol-5-yl-N-[1-(5-propyl-[1,2,4]oxadiazol-3-yl)-piperidin-4-yl]-benzamide]
- EC50: 23 nM

Compound: O=C(c1ccc(-c2cnco2)cc1)N(C1CC1)C1CCN(c2nc(CCC(F)(F)F)no2)CC1 [Example 60, N-Cyclopropyl-4-oxazol-5-yl-N-{1-[3-(3,3,3-trifluoro-propyl)-[1,2,4]oxadiazol-5-yl]-piperidin-4-yl}-benzamide]
- EC50: 50 nM

Compound: Cc1cnc(N2CCC(N(C(=O)c3ccc(-c4cnco4)cc3)C3CC3)CC2)cn1 [Example 61, N-Cyclopropyl-N-[1-(5-methyl-pyrazin-2-yl)-piperidin-4-yl]-4-oxazol-5-yl-benzamide]
- EC50: 52 nM
